Experiments:
HepG2 cells [1] = test: FACs analysis with PI staining (cell cycle); format: cell-based, human
Description: 400,000 HepG2 cells were seeded in a 6-well plated and treated with 10 μM of the compounds for 2 days. Cells were fixed with 70% ethanol and stained with 50 μg/ml PI. Prepared cells were analysed using BD FACS Canto II Flow Cytometry system at PE-A channel 10,000 cells per group. The data was histogram plotted with BD FACSDiva 9.0.

HepG2 cells [2] = test: Mitochondrial membrane potential assay (TMRE); format: cell-based, human; conditions: 10 μM, one day
Outline: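 HepG2 cells treated with compounds at the chosen concentration and time, then assayed with kits for TMRE, autophagy, DCFDA ROS or lipid peroxidation. Fluorescence intensity measured from ROI in images or by microplate reader in triplicate (GFP Ex480/Em530 nm, RFP Ex549/Em574 nm).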

[3] = In vivo toxicological study in rats: plasma chemistry; parameters: species or system rats of the Wistar strain; conditions: plasma, 30-300 mg/kg of SET171
Description: Forty-two male and forty-two female rats of the Wistar strain were allocated to the study. Three groups of three males and three females were given doses of 30, 100 and 300 mg/kg of target compounds (Table 8). The vehicle was 1.5 w/w % HPMC, 1.5 w/w % PS80 in 10 mM PBS, pH 7 and dose volume were 5 mL/kg. The animals were acclimatised at least 14 day prior to the study and exposed to a 12 hours light, 12 hours dark light cycle. The formulations were administered via oral gavage. Administration occurred once daily in the morning for seven consecutive days. Blood for scheduled haematology and plasma chemistry were taken at necropsy. For plasma chemistry, 0.6 ml blood (lithium heparin) per animal and for haematology, 0.5 ml blood (K2EDTA) per animal. The blood and plasma were analysed using Exigo analyzer and Vetscan equipment. Blood samples were kept in room temperature […] after collection and mixing. The blood samples were analysed as whole blood within 60 min of collection. The VetScan analyser was calibrated with calibration samples of known plasma levels of each parameter before start of analysis, occasionally during the analysis period of study samples and after completed analyses (Table 10).

**Q.** For `N#Cc1c(NC(=O)c2cccc3ccccc23)sc2c1CCN(CC(=O)Nc1cccc(Br)c1)C2` [PKL-B171], which “Cell population G0/G1” value (HepG2 cells [1]; PI FACs, 10 μM, 2 days) is on record?
**A.** 6.6

**Q.** What about the “Cell population G2/M” value (HepG2 cells [1]; PI FACs, 10 μM, 2 days) of the same compound?
**A.** 79.1

**Q.** What about the “Cell population S” value (HepG2 cells [1]; PI FACs, 10 μM, 2 days) of the same compound?
**A.** 3.6

**Q.** What about the “cells in the G2/M phase” value (HepG2 cells [1]; histogram plots) of the same compound?
**A.** around 89%

**Q.** And the mitochondrial membrane potential (HepG2 cells [2])?
**A.** significantly decreased

**Q.** And the ALB ([3]; Sex/Group F/11)?
**A.** 61 g/L

**Q.** What about the ALP ([3]; Sex/Group F/11) of the same compound?
**A.** 114 U/L

**Q.** And the ALT ([3]; Sex/Group F/11)?
**A.** 21 U/L

**Q.** And the AMY ([3]; Sex/Group F/11)?
**A.** 527 U/L

**Q.** What about the BUN ([3]; Sex/Group F/11) of the same compound?
**A.** 6.0 mmol/L

**Q.** What about the CA ([3]; Sex/Group F/11) of the same compound?
**A.** 2.90 mmol/L

**Q.** What about the CRE ([3]; Sex/Group F/11) of the same compound?
**A.** 45 µmol/L

**Q.** And the GLOB ([3]; Sex/Group F/11)?
**A.** 8 g/L

**Q.** And the GLU ([3]; Sex/Group F/11)?
**A.** 7.8 mmol/L

**Q.** What about the “K+” value ([3]; Sex/Group F/11) of the same compound?
**A.** 4.4 mmol/L

**Q.** And the “NA+” value ([3]; Sex/Group F/11)?
**A.** 138 mmol/L

**Q.** And the PHOS ([3]; Sex/Group F/11)?
**A.** 2.33 mmol/L

**Q.** What about the TBIL ([3]; Sex/Group F/11) of the same compound?
**A.** 5.3 µmol/L

**Q.** What about the TP ([3]; Sex/Group F/11) of the same compound?
**A.** 70 g/L

**Q.** And the ALB ([3]; Sex/Group F/12)?
**A.** 57 g/L

**Q.** And the ALP ([3]; Sex/Group F/12)?
**A.** 126 U/L

**Q.** What about the ALT ([3]; Sex/Group F/12) of the same compound?
**A.** 21 U/L

**Q.** And the AMY ([3]; Sex/Group F/12)?
**A.** 570 U/L

**Q.** And the BUN ([3]; Sex/Group F/12)?
**A.** 6.5 mmol/L

**Q.** And the CA ([3]; Sex/Group F/12)?
**A.** 2.92 mmol/L

**Q.** What about the CRE ([3]; Sex/Group F/12) of the same compound?
**A.** 38 µmol/L

**Q.** What about the GLOB ([3]; Sex/Group F/12) of the same compound?
**A.** 9 g/L

**Q.** And the GLU ([3]; Sex/Group F/12)?
**A.** 7.7 mmol/L

**Q.** What about the “K+” value ([3]; Sex/Group F/12) of the same compound?
**A.** 4.5 mmol/L

**Q.** And the “NA+” value ([3]; Sex/Group F/12)?
**A.** 137 mmol/L

**Q.** And the PHOS ([3]; Sex/Group F/12)?
**A.** 2.42 mmol/L

**Q.** What about the TBIL ([3]; Sex/Group F/12) of the same compound?
**A.** 5.0 µmol/L

**Q.** And the TP ([3]; Sex/Group F/12)?
**A.** 66 g/L

**Q.** What about the ALB ([3]; Sex/Group F/13) of the same compound?
**A.** 56 g/L

**Q.** And the ALP ([3]; Sex/Group F/13)?
**A.** 145 U/L

**Q.** What about the ALT ([3]; Sex/Group F/13) of the same compound?
**A.** 21 U/L

**Q.** And the AMY ([3]; Sex/Group F/13)?
**A.** 550 U/L

**Q.** And the BUN ([3]; Sex/Group F/13)?
**A.** 6.3 mmol/L

**Q.** What about the CA ([3]; Sex/Group F/13) of the same compound?
**A.** 2.89 mmol/L

**Q.** What about the CRE ([3]; Sex/Group F/13) of the same compound?
**A.** 39 µmol/L

**Q.** And the GLOB ([3]; Sex/Group F/13)?
**A.** 11 g/L

**Q.** And the GLU ([3]; Sex/Group F/13)?
**A.** 7.9 mmol/L

**Q.** And the “K+” value ([3]; Sex/Group F/13)?
**A.** 4.5 mmol/L

**Q.** And the “NA+” value ([3]; Sex/Group F/13)?
**A.** 139 mmol/L

**Q.** And the PHOS ([3]; Sex/Group F/13)?
**A.** 2.64 mmol/L

**Q.** What about the TBIL ([3]; Sex/Group F/13) of the same compound?
**A.** 4.0 µmol/L

**Q.** And the TP ([3]; Sex/Group F/13)?
**A.** 67 g/L

**Q.** What about the ALB ([3]; Sex/Group M/11) of the same compound?
**A.** 51 g/L

**Q.** What about the ALP ([3]; Sex/Group M/11) of the same compound?
**A.** 260 U/L

**Q.** And the ALT ([3]; Sex/Group M/11)?
**A.** 26 U/L

**Q.** What about the AMY ([3]; Sex/Group M/11) of the same compound?
**A.** 810 U/L

**Q.** What about the BUN ([3]; Sex/Group M/11) of the same compound?
**A.** 5.3 mmol/L

**Q.** What about the CA ([3]; Sex/Group M/11) of the same compound?
**A.** 2.97 mmol/L

**Q.** What about the CRE ([3]; Sex/Group M/11) of the same compound?
**A.** 47 µmol/L

**Q.** What about the GLOB ([3]; Sex/Group M/11) of the same compound?
**A.** 12 g/L

**Q.** What about the GLU ([3]; Sex/Group M/11) of the same compound?
**A.** 7.8 mmol/L

**Q.** What about the “K+” value ([3]; Sex/Group M/11) of the same compound?
**A.** 4.3 mmol/L

**Q.** What about the “NA+” value ([3]; Sex/Group M/11) of the same compound?
**A.** 140 mmol/L

**Q.** What about the PHOS ([3]; Sex/Group M/11) of the same compound?
**A.** 2.83 mmol/L

**Q.** And the TBIL ([3]; Sex/Group M/11)?
**A.** 4.3 µmol/L

**Q.** And the TP ([3]; Sex/Group M/11)?
**A.** 62 g/L

**Q.** And the ALB ([3]; Sex/Group M/12)?
**A.** 52 g/L

**Q.** And the ALP ([3]; Sex/Group M/12)?
**A.** 248 U/L

**Q.** And the ALT ([3]; Sex/Group M/12)?
**A.** 35 U/L

**Q.** What about the AMY ([3]; Sex/Group M/12) of the same compound?
**A.** 846 U/L

**Q.** And the BUN ([3]; Sex/Group M/12)?
**A.** 6.2 mmol/L

**Q.** What about the CA ([3]; Sex/Group M/12) of the same compound?
**A.** 3.04 mmol/L

**Q.** What about the CRE ([3]; Sex/Group M/12) of the same compound?
**A.** 35 µmol/L

**Q.** And the GLOB ([3]; Sex/Group M/12)?
**A.** 12 g/L

**Q.** And the GLU ([3]; Sex/Group M/12)?
**A.** 7.7 mmol/L

**Q.** And the “K+” value ([3]; Sex/Group M/12)?
**A.** 4.6 mmol/L

**Q.** What about the “NA+” value ([3]; Sex/Group M/12) of the same compound?
**A.** 140 mmol/L

**Q.** What about the PHOS ([3]; Sex/Group M/12) of the same compound?
**A.** 3.04 mmol/L

**Q.** And the TBIL ([3]; Sex/Group M/12)?
**A.** 4.3 µmol/L

**Q.** And the TP ([3]; Sex/Group M/12)?
**A.** 64 g/L

**Q.** What about the ALB ([3]; Sex/Group M/13) of the same compound?
**A.** 50 g/L

**Q.** And the ALP ([3]; Sex/Group M/13)?
**A.** 263 U/L

**Q.** And the ALT ([3]; Sex/Group M/13)?
**A.** 25 U/L

**Q.** And the AMY ([3]; Sex/Group M/13)?
**A.** 808 U/L

**Q.** What about the BUN ([3]; Sex/Group M/13) of the same compound?
**A.** 6.4 mmol/L

**Q.** What about the CA ([3]; Sex/Group M/13) of the same compound?
**A.** 2.96 mmol/L

**Q.** What about the CRE ([3]; Sex/Group M/13) of the same compound?
**A.** 29 µmol/L

**Q.** And the GLOB ([3]; Sex/Group M/13)?
**A.** 13 g/L

**Q.** And the GLU ([3]; Sex/Group M/13)?
**A.** 8.4 mmol/L

**Q.** And the “K+” value ([3]; Sex/Group M/13)?
**A.** 4.4 mmol/L

**Q.** And the “NA+” value ([3]; Sex/Group M/13)?
**A.** 141 mmol/L

**Q.** And the PHOS ([3]; Sex/Group M/13)?
**A.** 2.94 mmol/L

**Q.** What about the TBIL ([3]; Sex/Group M/13) of the same compound?
**A.** 5.0 µmol/L

**Q.** And the TP ([3]; Sex/Group M/13)?
**A.** 63 g/L
